Data from patent publication US20090311295A1, “PARTICLES WITH HIGH UNIFORM LOADING OF NANOPARTICLES AND METHODS OF PREPARATION THEREOF” (priority 2006, published 2009).

What was measured:
[1] = X-ray diffraction (XRD) crystallinity; type: physicochemical; conditions: crystalline area divided by total scan area
Description: X-ray diffraction (XRD) was carried out on the raw materials of PS, PMMA and brilliant blue G. Crystallinity of these materials was calculated by dividing the crystalline area (obtained by subtracting amorphous region) by the total scan area. […] XRD was then run on the melt mixtures of brilliant blue G with PS and PMMA.

[2] = Solubility of raw materials and polymer melt mixtures; conditions: for MeCl2 Solubility: methylene chloride, Table III; for solubility in organics: organic solvents

Row | Molecule | XRD % Crystallinity [1] | MeCl2 Solubility [2] | solubility in organics [2] | water solubility [2]
1 | Chlorophyll | 19.1% | − | insoluble in most organics | water soluble
2 | CCOc1ccc(Nc2ccc(/C(=C3C=C/C(=[N+](/CC)Cc4cccc(S(=O)(=O)[O-])c4)C=C/3C)c3ccc(N(CC)Cc4cccc(S(=O)(=O)[O-])c4)cc3C)cc2)cc1.[Na+] [Brillian blue G, Brilliant blue G] | 22.3% |  |  | 
3 | [Cu+2].c1ccc2c(c1)-c1nc-2nc2[n-]c(nc3nc(nc4[n-]c(n1)c1ccccc41)-c1ccccc1-3)c1ccccc21 [Copper(II) phthalocyanine] | 67.1% | − | insoluble in most organics | water insoluble
4 | O=C1/C(=C2\Nc3ccc(S(=O)(=O)[O-])cc3C2=O)Nc2ccc(S(=O)(=O)[O-])cc21.[Na+].[Na+] [FD&C blue #2] | 36.4% | − | insoluble in most organics | very water soluble
5 | CC1(C)C(/C=C/C=C/C=C/C=C2\N(CCCCS(=O)(=O)O)c3ccc4ccccc4c3C2(C)C)=[N+](CCCCS(=O)(=O)[O-])c2ccc3ccccc3c21 [Indocyanine green] | 24.8% | − | insoluble in most organics | very water soluble
6 | CC1=C(/C=C/C(C)=C/C=C/C(C)=C/C=C/C=C(C)/C=C/C=C(C)/C=C/C2=C(C)CCCC2(C)C)C(C)(C)CCC1 [beta-Carotene, β-carotene] |  | + | slightly soluble in some organics | nearly water insoluble
7 | CCN(Cc1cccc(S(=O)(=O)[O-])c1)c1ccc(C(=C2C=CC(=[N+](CC)Cc3cccc(S(=O)(=O)[O-])c3)C=C2)c2ccccc2S(=O)(=O)[O-])cc1.[Na+].[Na+] [FD&C blue #1] |  | − | insoluble in most organics | very water soluble
